The source of these data is patent publication US12528801B2 (Givaudan SA, priority 2019, dated 2026).

One may read the pEC50 as the negative decadic logarithm of the EC50, by convention in mol/L.

Assay [1] concerns the target T1, hTRPM8 (Homo sapiens, UniProt Q7Z2W7).
T1 construct: expressed in transfected cells
In words: Assay on TRPM8 modulators: calcium imaging (Fluo-4, Flexstation) in HEK293 cell line stably expressing hTRPM8. The format is cell-based. The conditions noted are these: HEK293 cells stably expressing hTRPM8; calcium influx, Fluo-4, Flexstation 3; sigmoidal dose-response fit. The method, boiled down:
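HEK293 cells stably expressing hTRPM8 were loaded with Fluo-4 AM plus probenecid and kept in HEPES buffer, pH 7.4. Calcium influx to serially diluted compounds was recorded for 120 s. Maximal activation was referenced to solvent control and 31.6 μM menthol, with EC values from sigmoidal dose-response fits.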

Assay [2] relates to trained group of panelists. In words: Sensory studies in aqueous solution (trained panel, mouth swill). The format is in vivo, human. The settings on record: 10 ppm in aqueous solution; for Time of max. cooling / Max. cooling: 20 mL swilled in the mouth for 60 seconds; for Max. cooling / Cooling after 1 h: panel-averaged cooling score, scale 0 to 10; for Cooling after 1 h: 1 h after swilling. How it is done: The compounds as listed below in Table 2 were dissolved at a concentration of 1 wt-% in propylene glycol. These solutions were then dispensed in appropriate quantities into deionized water containing 0.5 wt-% Poloxamer 407 (which is a hydrophilic non-ionic surfactant, e.g., commercially available from SigmaAldrich) and 0.25 wt-% Cremaphor® RH40 (obtained from BASF) as solubilizer, to obtain the desired final concentration of 10 ppm (parts per million) of the respective compound.
A trained group of panelists evaluated the aqueous solutions containing test compound by swilling 20 mL of the solution in the mouth for 60 seconds, followed by spitting, without rinsing the mouth afterwards for the duration of the evaluation. Panelists evaluated and recorded the cooling performance as well as other sensorial and organoleptic attributes at different timepoints over a period of two hours. Cooling performance was rated on a scale from 0 to 10 with 0 being no effect and 10 being freezing. Scores were averaged for all panelists and the cooling intensity qualified as “none” (score of 0), “low” (score above 0, up to 1), “medium” (score above 1, up to 4) “strong” (score above 4, up to 8) and “freezing” (score above 8), which are provided in Table 2.

Molecules are shown by their SMILES. pEC50: −log10 of the molar value.

T1 sequence (Q7Z2W7 whole entry): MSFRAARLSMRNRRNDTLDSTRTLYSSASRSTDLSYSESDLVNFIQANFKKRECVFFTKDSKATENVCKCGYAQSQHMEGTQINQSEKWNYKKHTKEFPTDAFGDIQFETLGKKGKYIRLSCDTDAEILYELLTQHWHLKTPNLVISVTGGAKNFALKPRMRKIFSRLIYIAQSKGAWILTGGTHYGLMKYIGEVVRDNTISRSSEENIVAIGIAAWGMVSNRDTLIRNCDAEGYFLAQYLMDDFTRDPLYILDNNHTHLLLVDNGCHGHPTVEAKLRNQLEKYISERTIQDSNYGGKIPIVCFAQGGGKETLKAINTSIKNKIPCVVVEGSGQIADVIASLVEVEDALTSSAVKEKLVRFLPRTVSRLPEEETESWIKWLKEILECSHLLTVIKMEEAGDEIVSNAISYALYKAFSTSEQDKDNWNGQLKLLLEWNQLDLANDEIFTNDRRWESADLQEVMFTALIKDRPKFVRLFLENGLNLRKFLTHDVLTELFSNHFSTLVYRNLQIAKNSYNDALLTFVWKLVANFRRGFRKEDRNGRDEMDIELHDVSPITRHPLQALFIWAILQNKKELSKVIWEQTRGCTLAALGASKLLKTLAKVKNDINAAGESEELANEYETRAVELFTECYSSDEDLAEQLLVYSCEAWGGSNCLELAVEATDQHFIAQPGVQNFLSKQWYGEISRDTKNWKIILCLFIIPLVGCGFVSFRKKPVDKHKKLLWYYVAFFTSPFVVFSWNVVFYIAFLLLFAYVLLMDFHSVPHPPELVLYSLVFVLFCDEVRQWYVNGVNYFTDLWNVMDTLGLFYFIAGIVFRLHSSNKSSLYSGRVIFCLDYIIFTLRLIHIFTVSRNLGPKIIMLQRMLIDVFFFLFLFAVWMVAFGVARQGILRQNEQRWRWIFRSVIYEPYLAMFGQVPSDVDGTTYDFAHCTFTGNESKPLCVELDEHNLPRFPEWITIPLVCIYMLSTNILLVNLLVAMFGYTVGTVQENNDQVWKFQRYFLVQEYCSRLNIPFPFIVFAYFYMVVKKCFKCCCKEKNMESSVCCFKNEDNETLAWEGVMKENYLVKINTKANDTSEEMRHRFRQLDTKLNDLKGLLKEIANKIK

As to `CSC(C)C(=O)N1CCCCC1c1ncc(-c2ccc(C)s2)[nH]1` (stereo not shown) [Compound 127, 2-(methylthio)-1-(2-(5-(5-methylthiophen-2-yl)-1H-imidazol-2-yl)piperidin-1-yl)propan-1-one], in assay [1], the pEC50 was over 7.30. In assay [2], the “Time of max. cooling” value was found to be 10 min, the Max. cooling result is “S (S = Strong)” and the “Cooling after 1 h” value is recorded as “M (M = medium)”. As to `CSC(C)C(=O)N1CCCCC1c1ncc(-c2ccccc2)[nH]1` (stereo not shown) [Compound 135, 2-(methylthio)-1-(2-(5-phenyl-1H-imidazol-2-yl)piperidin-1-yl)propan-1-one], the pEC50 in assay [1] was over 7.30. Moreover, in assay [2], the “Time of max. cooling” value is 10 min, the Max. cooling entry is “M (M = medium)” and the “Cooling after 1 h” value is “L (L = Low)”. `CCC(C)C(=O)N1CCCCC1c1ncc(-c2ccc(C#N)cc2)[nH]1` (stereo not shown) [Compound 198]: in assay [1], the pEC50 was over 7.30. Same read-out and setting: as for `Cc1ccc(-c2cnc(C3CCCCN3C(=O)C(C)C(C)C)[nH]2)cc1` (stereo not shown) [Compound 199, 2,3-dimethyl-1-(2-(5-(p-tolyl)-1H-imidazol-2-yl)piperidin-1-yl)butan-1-one], the figure is over 7.30; as for `CCC(C)C(=O)N1CCCCC1c1ncc(-c2ccccc2C)[nH]1` (stereo not shown) [Compound 200, 2-methyl-1-(2-(5-(o-tolyl)-1H-imidazol-2-yl)piperidin-1-yl)butan-1-one], 6.52 to 7.30. Turning to `CCC(C)C(=O)N1CCCCC1c1ncc(-c2cccc(C)c2)[nH]1` (stereo not shown) [Compound 201, 2-methyl-1-(2-(5-(m-tolyl)-1H-imidazol-2-yl)piperidin-1-yl)butan-1-one], the pEC50 in assay [1] is 6.52 to 7.30. As for `CCC(C)C(=O)N1CCCCC1c1ncc(-c2ccc(CO)cc2)[nH]1` (stereo not shown) [Compound 202, 1-(2-(5-(4-(hydroxymethyl)phenyl)-1H-imidazol-2-yl)piperidin-1-yl)-2-methylbutan-1-one], the pEC50 in assay [1] was 6.52 to 7.30. Consider `Cc1ccc(-c2cnc(C3CCCCN3S(=O)(=O)C(C)C)[nH]2)cc1` (stereo not shown) [Compound 203, 1-(isopropylsulfonyl)-2-(5-(p-tolyl)-1H-imidazol-2-yl)piperidine], for which the pEC50 in assay [1] was 6.00 to 6.52. In the case of `CCC(C)S(=O)(=O)N1CCCCC1c1ncc(-c2ccc(C)cc2)[nH]1` (stereo not shown) [Compound 204, 1-(sec-butylsulfonyl)-2-(5-(p-tolyl)-1H-imidazol-2-yl)piperidine], in assay [1], the pEC50 is 4.46 to 6.00. On to `CCC(C)C(=O)N1CCCCC1c1ncc(-c2ccc(C)s2)[nH]1` (stereo not shown) [Compound 205, 2-methyl-1-(2-(5-(5-methylthiophen-2-yl)-1H-imidazol-2-yl)piperidin-1-yl)butan-1-one], for which the pEC50 in assay [1] is over 7.30.

`CSC(C)C(=O)N1CCNCC1c1ncc(-c2ccc(C)cc2)[nH]1` (stereo not shown) [Compound 206, 2-(methylthio)-1-(2-(5-(p-toly)-1H-imidazol-2-yl)piperazin-1-yl)propan-1-one]: the pEC50 in assay [1] was over 7.30. Consider `CSC(C)C(=O)N1CCCCC1c1nc(-c2ccc(C)cc2)co1` (stereo not shown) [Compound 207, 2-(methylthio)-1-(2-(4-(p-tolyl)oxazol-2-yl)piperidin-1-yl)propan-1-one], for which, in assay [1], the pEC50 was over 7.30.

For `CCC(C)C(=O)N1CCCCC1c1nc(-c2ccc(C)cc2)co1` (stereo not shown) [Compound 208, 2-methyl-1-(2-(4-(p-tolyl)oxazol-2-yl)piperidin-1-yl)butan-1-one], the pEC50 in assay [1] is over 7.30.
